Source: US10562887B2, “Triazolones and tetrazolones as inhibitors of ROCK” (BRISTOL-MYERS SQUIBB COMPANY, priority 2016, dated 2020)

Biological target: ROCK2 (Homo sapiens (Human), UniProt O75116)
Experiment: ROCK2 assay (peptide phosphorylation, LABCHIP 3000 Reader)
Format: biochemical
Conditions: 5 μM ATP, 1.5 μM peptide substrate
Experimental: The effectiveness of compounds of the present invention as ROCK inhibitors can be determined in a 30 μL, assay containing 20 mM HEPES, pH 7.5, 20 mM MgCl2, 0.015% Brij-35, 4 mM DTT, 5 μM ATP and 1.5 μM peptide substrate (FITC-AHA-AKRRRLSSLRA-OH). Compounds were dissolved in DMSO so that the final concentration of DMSO was <2%, and the reaction was initiated with Rho kinase variants. After incubation, the reaction was terminated by the addition of EDTA and the phosphorylated and non-phosphorylated peptides separated using a LABCHIP® 3000 Reader (Caliper Life Sciences). […] Compounds were tested in dose-response format, and the inhibition of kinase activity was calculated at each concentration of compound. The inhibition data were fit using a curve-fitting program to determine the IC50; i.e., the concentration of compound required to inhibit 50% of kinase activity.
Representative Examples were tested in the ROCK2 assay described above and found having ROCK2 inhibitory activity.

Chain of ROCK2 (O75116 whole entry, species assumed): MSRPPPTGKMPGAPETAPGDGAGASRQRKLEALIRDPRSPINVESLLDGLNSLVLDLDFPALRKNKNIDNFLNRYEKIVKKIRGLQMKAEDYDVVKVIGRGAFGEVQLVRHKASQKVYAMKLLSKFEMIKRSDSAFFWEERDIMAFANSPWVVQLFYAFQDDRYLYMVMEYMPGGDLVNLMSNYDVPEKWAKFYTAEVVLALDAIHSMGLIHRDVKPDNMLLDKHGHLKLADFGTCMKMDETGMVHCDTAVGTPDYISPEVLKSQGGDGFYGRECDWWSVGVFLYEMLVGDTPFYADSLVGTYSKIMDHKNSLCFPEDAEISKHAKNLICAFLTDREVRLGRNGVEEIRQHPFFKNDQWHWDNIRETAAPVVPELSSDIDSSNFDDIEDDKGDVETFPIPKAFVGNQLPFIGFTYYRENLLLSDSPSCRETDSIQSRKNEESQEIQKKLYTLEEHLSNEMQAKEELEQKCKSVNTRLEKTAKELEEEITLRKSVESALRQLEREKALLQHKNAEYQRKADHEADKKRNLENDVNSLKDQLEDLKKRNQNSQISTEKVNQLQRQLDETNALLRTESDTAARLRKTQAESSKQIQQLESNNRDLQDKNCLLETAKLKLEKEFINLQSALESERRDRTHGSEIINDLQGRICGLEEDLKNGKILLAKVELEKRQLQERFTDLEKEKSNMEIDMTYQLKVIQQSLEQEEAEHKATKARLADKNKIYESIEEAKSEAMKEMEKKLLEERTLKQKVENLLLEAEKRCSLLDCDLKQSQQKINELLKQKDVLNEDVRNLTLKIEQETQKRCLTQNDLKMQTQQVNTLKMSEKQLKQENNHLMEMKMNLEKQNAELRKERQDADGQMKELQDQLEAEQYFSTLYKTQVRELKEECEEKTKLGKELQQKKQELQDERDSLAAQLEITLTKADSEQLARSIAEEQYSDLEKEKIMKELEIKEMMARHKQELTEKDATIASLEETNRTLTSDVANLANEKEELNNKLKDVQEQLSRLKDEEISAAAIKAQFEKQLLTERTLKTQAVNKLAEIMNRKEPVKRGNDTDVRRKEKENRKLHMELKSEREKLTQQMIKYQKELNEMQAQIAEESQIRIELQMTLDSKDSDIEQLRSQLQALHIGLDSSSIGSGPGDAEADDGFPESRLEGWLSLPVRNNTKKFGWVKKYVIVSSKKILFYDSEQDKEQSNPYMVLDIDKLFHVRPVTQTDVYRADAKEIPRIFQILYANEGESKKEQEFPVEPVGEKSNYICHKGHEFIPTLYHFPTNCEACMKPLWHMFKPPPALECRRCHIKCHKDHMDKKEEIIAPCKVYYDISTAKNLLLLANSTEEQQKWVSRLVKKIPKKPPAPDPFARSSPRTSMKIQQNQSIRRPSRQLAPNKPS

Row | Compound | IC50 [nM]
1 | COc1cccc(Cn2c(C)nn(-c3ccc(-c4cn[nH]c4)cc3)c2=O)c1 [Example 80, 1-(4-(1H-pyrazol-4-yl)phenyl)-4-(3-methoxybenzyl)-3-methyl-1H-1,2,4-triazol-5(4H)-one] | < 5
2 | CCc1cc(-n2ncn(Cc3cc(F)cc(F)c3)c2=O)ccc1-c1cn[nH]c1 [Example 44, 4-(3,5-difluorobenzyl)-1-(3-ethyl-4-(1H-pyrazol-4-yl)phenyl)-1H-1,2,4-triazol-5(4H)-one] | 5 to 50
3 | COc1cccc(Cn2cnn(-c3ccc(-c4cn[nH]c4)c(OC)c3)c2=O)c1 [Example 24, 1-(3-methoxy-4-(1H-pyrazol-4-yl)phenyl)-4-(3-methoxybenzyl)-1H-1,2,4-triazol-5(4H)-one] | < 5
4 | CC(O)c1nn(-c2ccc(-c3cn[nH]c3)cc2)c(=O)n1Cc1ccccc1 (single isomer, unassigned) [Example 140, 1-(4-(1H-pyrazol-4-yl)phenyl)-4-benzyl-3-(1-hydroxyethyl)-1H-1,2,4-triazol-5(4H)-one] | 5 to 50
5 | O=c1n(Cc2c(F)cccc2F)cnn1-c1ccc(-c2cn[nH]c2)cc1 [Example 33, 1-(4-(1H-pyrazol-4-yl)phenyl)-4-(2,6-difluorobenzyl)-1H-1,2,4-triazol-5(4H)-one] | 5 to 50
6 | COc1cc(-c2cn[nH]c2)ccc1-n1c(C)nn(Cc2ccccc2)c1=O [Example 63, 1-benzyl-4-(2-methoxy-4-(1H-pyrazol-4-yl)phenyl)-3-methyl-1H-1,2,4-triazol-5(4H)-one] | 250 to 2000
7 | COc1cc(-n2ncn(Cc3cc(F)ccc3F)c2=O)ccc1-c1cn[nH]c1 [Example 25, 4-(2,5-difluorobenzyl)-1-(3-methoxy-4-(1H-pyrazol-4-yl)phenyl)-1H-1,2,4-triazol-5(4H)-one] | 5 to 50
8 | CC(c1ccccc1)n1nnn(-c2ccc(-c3cn[nH]c3)cc2)c1=O (stereo not shown) [Example 176, 1-(4-(1H-pyrazol-4-yl)phenyl)-4-(1-phenylethyl)-1H-tetrazol-5(4H)-one] | 5 to 50
9 | COc1cccc(Cn2c(CO)nn(-c3ccc(-c4cn[nH]c4)cc3)c2=O)c1 [Example 125, 1-(4-(1H-pyrazol-4-yl)phenyl)-3-(hydroxymethyl)-4-(3-methoxybenzyl)-1H-1,2,4-triazol-5(4H)-one] | < 5
10 | Cc1nn(-c2ccc(-c3cn[nH]c3)cc2)c(=O)n1Cc1cc(F)ccc1F [Example 82, 1-(4-(1H-pyrazol-4-yl)phenyl)-4-(2,5-difluorobenzyl)-3-methyl-1H-1,2,4-triazol-5(4H)-one] | 5 to 50
11 | CCc1cc(-n2nc(C)n(Cc3ccccc3)c2=O)ccc1-c1cn[nH]c1 [Example 117, 4-benzyl-1-(3-ethyl-4-(1H-pyrazol-4-yl)phenyl)-3-methyl-1H-1,2,4-triazol-5(4H)-one] | 5 to 50
12 | CC(C)(O)c1nn(-c2ccc(-c3cn[nH]c3)cc2)c(=O)n1Cc1cccc(F)c1 [Example 135, 1-(4-(1H-pyrazol-4-yl)phenyl)-4-(3-fluorobenzyl)-3-(2-hydroxypropan-2-yl)-1H-1,2,4-triazol-5(4H)-one] | 5 to 50
13 | O=c1n(Cc2ccccc2)cnn1-c1ccc(-c2cn[nH]c2)cc1 [Example 17, 1-(4-(1H-pyrazol-4-yl)phenyl)-4-benzyl-1H-1,2,4-triazol-5(4H)-one] | 5 to 50
14 | COc1cc(F)cc(Cn2cnn(-c3ccc(-c4cn[nH]c4)c(OC)c3)c2=O)c1 [Example 26, 4-(3-fluoro-5-methoxybenzyl)-1-(3-methoxy-4-(1H-pyrazol-4-yl)phenyl)-1H-1,2,4-triazol-5(4H)-one] | < 5
15 | COc1cc(F)cc(Cn2c(CNCCO)nn(-c3ccc(-c4cn[nH]c4)cc3)c2=O)c1 [Example 151, 1-(4-(1H-pyrazol-4-yl)phenyl)-4-(3-fluoro-5-methoxybenzyl)-3-(((2-hydroxyethyl)amino)methyl)-1H-1,2,4-triazol-5(4H)-one] | 5 to 50
16 | O=c1n(-c2ccc(-c3cn[nH]c3)cc2)nc(CO)n1Cc1cc(F)ccc1F [Example 129, 1-(4-(1H-pyrazol-4-yl)phenyl)-4-(2,5-difluorobenzyl)-3-(hydroxymethyl)-1H-1,2,4-triazol-5(4H)-one] | 5 to 50
